Laboratory results reported in the NIST ThermoML archive (doi:10.1016/j.jct.2009.11.014).

Conditions: Liquid; for mass density: vibrating tube; for viscosity: Stony Brook Scientific falling needle HPHTV-100 viscometer

CCCCCCn1cc[n+](C)c1.F[B-](F)(F)F [1-hexyl-3-methylimidazolium tetrafluoroborate]
Conditions	mass density [kg/m3]	viscosity [mPa·s]
283.15 K, 100 kPa	1155.97	–
283.15 K, 2000 kPa	1156.84	–
283.15 K, 4000 kPa	1157.76	–
283.15 K, 6000 kPa	1158.69	–
283.15 K, 8000 kPa	1159.61	–
283.15 K, 10000 kPa	1160.53	–
283.15 K, 12000 kPa	1161.43	–
283.15 K, 14000 kPa	1162.34	–
283.15 K, 20000 kPa	1165.02	–
283.15 K, 30000 kPa	1169.4	–
283.15 K, 40000 kPa	1173.6	–
283.15 K, 50000 kPa	1177.7	–
283.15 K, 60000 kPa	1181.65	–
285.09 K, 4270 kPa	–	449.6
285.15 K, 130 kPa	–	420.5
285.15 K, 1400 kPa	–	430.2
285.15 K, 3170 kPa	–	437
285.15 K, 5380 kPa	–	457.2
285.15 K, 12640 kPa	–	495.6
285.2 K, 5080 kPa	–	447.9
285.22 K, 12000 kPa	–	488.4
285.23 K, 7090 kPa	–	460.6
285.23 K, 10000 kPa	–	481.6
285.23 K, 14220 kPa	–	504.9
285.25 K, 8290 kPa	–	468.5
288.15 K, 100 kPa	1152.44	–
288.15 K, 2000 kPa	1153.37	–
288.15 K, 4000 kPa	1154.32	–
288.15 K, 6000 kPa	1155.11	–
288.15 K, 8000 kPa	1156.19	–
288.15 K, 10000 kPa	1157.11	–
288.15 K, 12000 kPa	1158.05	–
288.15 K, 14000 kPa	1158.97	–
288.15 K, 20000 kPa	1161.68	–
288.15 K, 30000 kPa	1166.05	–
288.15 K, 40000 kPa	1170.31	–
288.15 K, 50000 kPa	1174.45	–
288.15 K, 60000 kPa	1178.4	–
293.15 K, 100 kPa	1148.92	–
293.15 K, 2000 kPa	1149.88	–
293.15 K, 4000 kPa	1150.84	–
293.15 K, 6000 kPa	1151.81	–
293.15 K, 8000 kPa	1152.76	–
293.15 K, 10000 kPa	1153.7	–
293.15 K, 12000 kPa	1154.65	–
293.15 K, 14000 kPa	1155.57	–
293.15 K, 20000 kPa	1158.32	–
293.15 K, 30000 kPa	1162.74	–
293.15 K, 40000 kPa	1167.02	–
293.15 K, 50000 kPa	1171.16	–
293.15 K, 60000 kPa	1175.18	–
294.65 K, 14670 kPa	–	285.1
294.75 K, 8260 kPa	–	261.3
294.75 K, 10200 kPa	–	270.5
294.75 K, 12300 kPa	–	278.6
294.77 K, 6430 kPa	–	254.4
294.85 K, 140 kPa	–	238.3
294.85 K, 760 kPa	–	238.2
294.85 K, 2760 kPa	–	242.5
294.85 K, 4280 kPa	–	246.6
294.91 K, 1460 kPa	–	238.3
298.15 K, 100 kPa	1145.47	–
298.15 K, 2000 kPa	1146.39	–
298.15 K, 4000 kPa	1147.43	–
298.15 K, 6000 kPa	1148.36	–
298.15 K, 8000 kPa	1149.29	–
298.15 K, 10000 kPa	1150.27	–
298.15 K, 12000 kPa	1151.22	–
298.15 K, 14000 kPa	1152.19	–
298.15 K, 20000 kPa	1154.94	–
298.15 K, 30000 kPa	1159.42	–
298.15 K, 40000 kPa	1163.75	–
298.15 K, 50000 kPa	1167.96	–
298.15 K, 60000 kPa	1172.02	–
300.25 K, 1630 kPa	–	179.8
300.39 K, 2690 kPa	–	180.5
300.42 K, 14380 kPa	–	210.1
300.49 K, 4140 kPa	–	184.2
300.61 K, 6190 kPa	–	187
300.61 K, 12340 kPa	–	202.5
300.62 K, 8490 kPa	–	191.3
300.68 K, 10400 kPa	–	196.1
300.75 K, 1410 kPa	–	175.2
300.85 K, 120 kPa	–	168.1
303.15 K, 100 kPa	1141.99	–
303.15 K, 2000 kPa	1142.93	–
303.15 K, 4000 kPa	1143.92	–
303.15 K, 6000 kPa	1144.93	–
303.15 K, 8000 kPa	1145.93	–
303.15 K, 10000 kPa	1146.85	–
303.15 K, 12000 kPa	1147.82	–
303.15 K, 14000 kPa	1148.83	–
303.15 K, 20000 kPa	1151.57	–
303.15 K, 30000 kPa	1156.18	–
303.15 K, 40000 kPa	1160.55	–
303.15 K, 50000 kPa	1164.76	–
303.15 K, 60000 kPa	1168.87	–
308.15 K, 100 kPa	1138.53	–
308.15 K, 2000 kPa	1139.5	–
308.15 K, 4000 kPa	1140.49	–
308.15 K, 6000 kPa	1141.48	–
308.15 K, 8000 kPa	1142.48	–
308.15 K, 10000 kPa	1143.45	–
308.15 K, 12000 kPa	1144.45	–
308.15 K, 14000 kPa	1145.41	–
308.15 K, 20000 kPa	1148.24	–
308.15 K, 30000 kPa	1152.83	–
308.15 K, 40000 kPa	1157.26	–
308.15 K, 50000 kPa	1161.57	–
308.15 K, 60000 kPa	1165.72	–
308.25 K, 1850 kPa	–	114.6
308.35 K, 14230 kPa	–	131.8
308.48 K, 12350 kPa	–	128.7
308.55 K, 10300 kPa	–	125.6
308.59 K, 8230 kPa	–	122.7
308.65 K, 110 kPa	–	112.3
308.65 K, 800 kPa	–	113
308.65 K, 1730 kPa	–	114.4
308.65 K, 2760 kPa	–	115.1
308.65 K, 4300 kPa	–	117.5
308.65 K, 6380 kPa	–	120.2
313.15 K, 100 kPa	1135.1	–
313.15 K, 2000 kPa	1136.08	–
313.15 K, 4000 kPa	1137.11	–
313.15 K, 6000 kPa	1138.14	–
313.15 K, 8000 kPa	1139.15	–
313.15 K, 10000 kPa	1140.14	–
313.15 K, 12000 kPa	1141.13	–
313.15 K, 14000 kPa	1142.09	–
313.15 K, 20000 kPa	1144.98	–
313.15 K, 30000 kPa	1149.62	–
313.15 K, 40000 kPa	1154.1	–
313.15 K, 50000 kPa	1158.44	–
313.15 K, 60000 kPa	1162.62	–
318.15 K, 100 kPa	1131.72	–
318.15 K, 2000 kPa	1132.7	–
318.15 K, 4000 kPa	1133.74	–
318.15 K, 6000 kPa	1134.77	–
318.15 K, 8000 kPa	1135.78	–
318.15 K, 10000 kPa	1136.79	–
318.15 K, 12000 kPa	1137.78	–
318.15 K, 14000 kPa	1138.79	–
318.15 K, 20000 kPa	1141.71	–
318.15 K, 30000 kPa	1146.4	–
318.15 K, 40000 kPa	1150.92	–
318.15 K, 50000 kPa	1155.3	–
318.15 K, 60000 kPa	1159.5	–
319.85 K, 2700 kPa	–	70.1
319.89 K, 110 kPa	–	67.7
319.95 K, 700 kPa	–	68.1
319.95 K, 4470 kPa	–	70.7
319.95 K, 6480 kPa	–	72.9
319.95 K, 14430 kPa	–	77.8
319.98 K, 3850 kPa	–	70.5
319.98 K, 12490 kPa	–	76.1
319.99 K, 8440 kPa	–	73.7
320.03 K, 1300 kPa	–	68.2
320.05 K, 2440 kPa	–	69.2
320.05 K, 10500 kPa	–	74.9
323.15 K, 100 kPa	1128.3	–
323.15 K, 2000 kPa	1129.31	–
323.15 K, 4000 kPa	1130.36	–
323.15 K, 6000 kPa	1131.4	–
323.15 K, 8000 kPa	1132.43	–
323.15 K, 10000 kPa	1133.45	–
323.15 K, 12000 kPa	1134.46	–
323.15 K, 14000 kPa	1135.46	–
323.15 K, 20000 kPa	1138.4	–
323.15 K, 30000 kPa	1143.16	–
323.15 K, 40000 kPa	1147.2	–
323.15 K, 50000 kPa	1152.14	–
323.15 K, 60000 kPa	1156.42	–
